PubChem BioAssay AID1963854 (Molecular Pharmacology Branch, DTP, NCI, 2024)
“And” between values parts separate entries of the source, which are not always exact repeats. Equal values may be shown once.

System: 186277-243-T-J2-PDC complex spheroid viability
Assay: Anticancer human tumor 186277-243-T-J2-PDC patient-derived colon adenocarcinoma cell line growth inhibition [POLQ]
Details: for viability, T/C: stronger effect = lower value
In short: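 Complex spheroid viability model combining PDC tumour cells with endothelial (HUVEC) and MSC stromal cells. Novobiocin, ART-558 or RP6685 were tested singly and in combination with standard and investigational anticancer drugs. Each was titrated in half-log steps from near clinical Cmax, or from 10 microM where Cmax was unknown.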

[1] = curve of first compound, second compound 0.0316 µM
[2] = curve of first compound, second compound 0.1 µM
[3] = curve of first compound, second compound 0.316 µM
[4] = curve of first compound, second compound 1 µM
[5] = curve of first compound, second compound 3.16 µM
[6] = curve of first compound, second compound 10 µM
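Also: spheroids exposed to compounds for seven days.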
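For viability, T/C in this document: 100% = DMSO vehicle control viability.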

Question: For `CC(=O)O[C@H]1C(=O)[C@@]2(C)[C@H]([C@H](OC(=O)c3ccccc3)[C@]3(O)C[C@H](OC(=O)[C@H](O)[C@@H](NC(=O)c4ccccc4)c4ccccc4)C(C)=C1C3(C)C)[C@]1(OC(C)=O)CO[C@@H]1C[C@@H]2O` + Nc1ccc(C#CCN(C(=O)Cc2ncc(C(F)(F)F)cc2C(F)(F)F)c2ccc(F)cc2)nn1, which IC50 [1] is on record?
Answer: < 9.49 nM

Question: And the IC50 [2]?
Answer: < 9.49 nM

Question: And the IC50 [3]?
Answer: < 9.49 nM

Question: And the IC50 [4]?
Answer: < 9.49 nM

Question: And the IC50 [5]?
Answer: < 9.49 nM

Question: What about the IC50 [6] of the same compound?
Answer: < 9.49 nM

Question: And the viability, T/C (second compound 0.0316 µM, first compound 0.00949 µM)?
Answer: 42.4%

Question: What about the viability, T/C (second compound 0.0316 µM, first compound 0.03 µM) of the same compound?
Answer: 12.5%

Question: And the viability, T/C (second compound 0.0316 µM, first compound 0.0949 µM)?
Answer: 7.75%

Question: And the viability, T/C (second compound 0.0316 µM, first compound 0.3 µM)?
Answer: 6.21%

Question: And the viability, T/C (second compound 0.0316 µM, first compound 0.949 µM)?
Answer: 5.52%

Question: And the viability, T/C (second compound 0.0316 µM, first compound 3 µM)?
Answer: 8.14%

Question: And the viability, T/C (second compound 0.1 µM, first compound 0.00949 µM)?
Answer: 41.4%

Question: What about the viability, T/C (second compound 0.1 µM, first compound 0.03 µM) of the same compound?
Answer: 10.8%

Question: What about the viability, T/C (second compound 0.1 µM, first compound 0.0949 µM) of the same compound?
Answer: 7.09%

Question: And the viability, T/C (second compound 0.1 µM, first compound 0.3 µM)?
Answer: 5.96%

Question: And the viability, T/C (second compound 0.1 µM, first compound 0.949 µM)?
Answer: 6.1%

Question: What about the viability, T/C (second compound 0.1 µM, first compound 3 µM) of the same compound?
Answer: 5.64%

Question: And the viability, T/C (second compound 0.316 µM, first compound 0.00949 µM)?
Answer: 41.7%

Question: What about the viability, T/C (second compound 0.316 µM, first compound 0.03 µM) of the same compound?
Answer: 11.7%

Question: And the viability, T/C (second compound 0.316 µM, first compound 0.0949 µM)?
Answer: 7.17%

Question: And the viability, T/C (second compound 0.316 µM, first compound 0.3 µM)?
Answer: 6.38%

Question: What about the viability, T/C (second compound 0.316 µM, first compound 0.949 µM) of the same compound?
Answer: 5.86%

Question: And the viability, T/C (second compound 0.316 µM, first compound 3 µM)?
Answer: 6.59%

Question: And the viability, T/C (second compound 1 µM, first compound 0.00949 µM)?
Answer: 36.1%

Question: What about the viability, T/C (second compound 1 µM, first compound 0.03 µM) of the same compound?
Answer: 13.4%

Question: What about the viability, T/C (second compound 1 µM, first compound 0.0949 µM) of the same compound?
Answer: 6.63%

Question: And the viability, T/C (second compound 1 µM, first compound 0.3 µM)?
Answer: 5.56%

Question: What about the viability, T/C (second compound 1 µM, first compound 0.949 µM) of the same compound?
Answer: 6.34%

Question: And the viability, T/C (second compound 1 µM, first compound 3 µM)?
Answer: 5.24%

Question: And the viability, T/C (second compound 3.16 µM, first compound 0.00949 µM)?
Answer: 28.4%

Question: What about the viability, T/C (second compound 3.16 µM, first compound 0.03 µM) of the same compound?
Answer: 10.8%

Question: And the viability, T/C (second compound 3.16 µM, first compound 0.0949 µM)?
Answer: 7.02%

Question: What about the viability, T/C (second compound 3.16 µM, first compound 0.3 µM) of the same compound?
Answer: 6.36%

Question: And the viability, T/C (second compound 3.16 µM, first compound 0.949 µM)?
Answer: 6.4%

Question: And the viability, T/C (second compound 3.16 µM, first compound 3 µM)?
Answer: 4.96%

Question: And the viability, T/C (second compound 10 µM, first compound 0.00949 µM)?
Answer: 21.8%

Question: And the viability, T/C (second compound 10 µM, first compound 0.03 µM)?
Answer: 8.01%

Question: And the viability, T/C (second compound 10 µM, first compound 0.0949 µM)?
Answer: 6.35%

Question: And the viability, T/C (second compound 10 µM, first compound 0.3 µM)?
Answer: 5.6%

Question: And the viability, T/C (second compound 10 µM, first compound 0.949 µM)?
Answer: 7.72%

Question: What about the viability, T/C (second compound 10 µM, first compound 3 µM) of the same compound?
Answer: 5.68%

Question: With `Nc1ccn(C2OC(CO)C(O)C2(F)F)c(=O)n1` (stereo unspecified) + Cc1cccc(N(C)C(=O)C2C(O)CCN2c2nc(C)cc(C(F)(F)F)c2C#N)c1 as the compound, how does the IC50 [1] read?
Answer: < 31.6 nM

Question: And the IC50 [2]?
Answer: < 31.6 nM

Question: And the IC50 [3]?
Answer: < 31.6 nM

Question: What about the IC50 [4] of the same compound?
Answer: < 31.6 nM

Question: What about the IC50 [5] of the same compound?
Answer: < 31.6 nM

Question: What about the IC50 [6] of the same compound?
Answer: < 31.6 nM

Question: What about the viability, T/C (second compound 0.0316 µM, first compound 0.0316 µM) of the same compound?
Answer: 7.07%

Question: And the viability, T/C (second compound 0.0316 µM, first compound 0.1 µM)?
Answer: 6.17%

Question: What about the viability, T/C (second compound 0.0316 µM, first compound 0.316 µM) of the same compound?
Answer: 6.28%

Question: And the viability, T/C (second compound 0.0316 µM, first compound 1 µM)?
Answer: 7.91%

Question: And the viability, T/C (second compound 0.0316 µM, first compound 3.16 µM)?
Answer: 7.05%

Question: What about the viability, T/C (second compound 0.0316 µM, first compound 10 µM) of the same compound?
Answer: 6.44%

Question: What about the viability, T/C (second compound 0.1 µM, first compound 0.0316 µM) of the same compound?
Answer: 7.12%

Question: What about the viability, T/C (second compound 0.1 µM, first compound 0.1 µM) of the same compound?
Answer: 6.99%

Question: What about the viability, T/C (second compound 0.1 µM, first compound 0.316 µM) of the same compound?
Answer: 7.56%

Question: What about the viability, T/C (second compound 0.1 µM, first compound 1 µM) of the same compound?
Answer: 8.01%

Question: What about the viability, T/C (second compound 0.1 µM, first compound 3.16 µM) of the same compound?
Answer: 7.17%

Question: What about the viability, T/C (second compound 0.1 µM, first compound 10 µM) of the same compound?
Answer: 6.37%

Question: And the viability, T/C (second compound 0.316 µM, first compound 0.0316 µM)?
Answer: 7.95%

Question: And the viability, T/C (second compound 0.316 µM, first compound 0.1 µM)?
Answer: 7.37%

Question: What about the viability, T/C (second compound 0.316 µM, first compound 0.316 µM) of the same compound?
Answer: 7%

Question: And the viability, T/C (second compound 0.316 µM, first compound 1 µM)?
Answer: 7.74%

Question: And the viability, T/C (second compound 0.316 µM, first compound 3.16 µM)?
Answer: 7.97%

Question: What about the viability, T/C (second compound 0.316 µM, first compound 10 µM) of the same compound?
Answer: 5.75%

Question: What about the viability, T/C (second compound 1 µM, first compound 0.0316 µM) of the same compound?
Answer: 8.61%

Question: What about the viability, T/C (second compound 1 µM, first compound 0.1 µM) of the same compound?
Answer: 6.36%

Question: What about the viability, T/C (second compound 1 µM, first compound 0.316 µM) of the same compound?
Answer: 7.13%

Question: And the viability, T/C (second compound 1 µM, first compound 1 µM)?
Answer: 7.45%

Question: And the viability, T/C (second compound 1 µM, first compound 3.16 µM)?
Answer: 8.07%

Question: And the viability, T/C (second compound 1 µM, first compound 10 µM)?
Answer: 6.24%

Question: And the viability, T/C (second compound 3.16 µM, first compound 0.0316 µM)?
Answer: 6.68%

Question: What about the viability, T/C (second compound 3.16 µM, first compound 0.1 µM) of the same compound?
Answer: 6.49%

Question: What about the viability, T/C (second compound 3.16 µM, first compound 0.316 µM) of the same compound?
Answer: 6.57%

Question: What about the viability, T/C (second compound 3.16 µM, first compound 1 µM) of the same compound?
Answer: 7.84%

Question: What about the viability, T/C (second compound 3.16 µM, first compound 3.16 µM) of the same compound?
Answer: 7.96%

Question: What about the viability, T/C (second compound 3.16 µM, first compound 10 µM) of the same compound?
Answer: 6.36%

Question: What about the viability, T/C (second compound 10 µM, first compound 0.0316 µM) of the same compound?
Answer: 6.88%

Question: And the viability, T/C (second compound 10 µM, first compound 0.1 µM)?
Answer: 5.82%

Question: And the viability, T/C (second compound 10 µM, first compound 0.316 µM)?
Answer: 5.86%

Question: What about the viability, T/C (second compound 10 µM, first compound 1 µM) of the same compound?
Answer: 6.97%

Question: What about the viability, T/C (second compound 10 µM, first compound 3.16 µM) of the same compound?
Answer: 6.86%

Question: And the viability, T/C (second compound 10 µM, first compound 10 µM)?
Answer: 5.93%

Question: For `CCc1c2c(nc3ccc(O)cc13)-c1cc3c(c(=O)n1C2)COC(=O)[C@]3(O)CC`, which viability, T/C (compound 0.00316 µM) is on record?
Answer: 71.2% and 120% and 58.7%

Question: What about the viability, T/C (compound 0.01 µM) of the same compound?
Answer: 48.6% and 82.9% and 43.5%

Question: What about the viability, T/C (compound 0.0316 µM) of the same compound?
Answer: 25.4% and 47% and 22.2%

Question: What about the viability, T/C (compound 0.1 µM) of the same compound?
Answer: 12.7% and 25.5% and 10.8%

Question: What about the viability, T/C (compound 0.316 µM) of the same compound?
Answer: 9.65% and 21.7% and 8.26%

Question: What about the viability, T/C (compound 1 µM) of the same compound?
Answer: 7.75% and 21.3% and 6.71%

Question: And the IC50 (curve of compound)?
Answer: 9.35 nM and 27.7 nM and 6.11 nM
